Non-standard residues stand in square brackets, D forms with d. Residues, ends and D or L forms follow the SMILES beside them. *: point of attachment. 5FAM = O=C1OC2(c3ccc(O)cc3Oc3cc(O)ccc32)c2ccc(C(=O)*)cc21; MethylRed = CN(C)c1ccc(/N=N/c2ccccc2C(=O)*)cc1; AEEA = NCCOCCOCC(=O)O
How the values were obtained:
[1] = biological target: MMP 9 (Homo sapiens, UniProt P14780); assay: Probe assessment against recombinant MMP panel; format: biochemical; conditions: recombinant enzyme, n=2 run in triplicate
[2] = biological target: T1, rhFAP (Homo sapiens, UniProt Q12884); assay: Enzyme kinetics with varying concentrations of substrate FAP3 in presence of rhFAP; format: biochemical; conditions: increasing concentrations of substrate FAP3 with rhFAP; value (SE)
T1 construct: purchased R&D Systems
T1 sequence (Q12884 26-760 limits assumed): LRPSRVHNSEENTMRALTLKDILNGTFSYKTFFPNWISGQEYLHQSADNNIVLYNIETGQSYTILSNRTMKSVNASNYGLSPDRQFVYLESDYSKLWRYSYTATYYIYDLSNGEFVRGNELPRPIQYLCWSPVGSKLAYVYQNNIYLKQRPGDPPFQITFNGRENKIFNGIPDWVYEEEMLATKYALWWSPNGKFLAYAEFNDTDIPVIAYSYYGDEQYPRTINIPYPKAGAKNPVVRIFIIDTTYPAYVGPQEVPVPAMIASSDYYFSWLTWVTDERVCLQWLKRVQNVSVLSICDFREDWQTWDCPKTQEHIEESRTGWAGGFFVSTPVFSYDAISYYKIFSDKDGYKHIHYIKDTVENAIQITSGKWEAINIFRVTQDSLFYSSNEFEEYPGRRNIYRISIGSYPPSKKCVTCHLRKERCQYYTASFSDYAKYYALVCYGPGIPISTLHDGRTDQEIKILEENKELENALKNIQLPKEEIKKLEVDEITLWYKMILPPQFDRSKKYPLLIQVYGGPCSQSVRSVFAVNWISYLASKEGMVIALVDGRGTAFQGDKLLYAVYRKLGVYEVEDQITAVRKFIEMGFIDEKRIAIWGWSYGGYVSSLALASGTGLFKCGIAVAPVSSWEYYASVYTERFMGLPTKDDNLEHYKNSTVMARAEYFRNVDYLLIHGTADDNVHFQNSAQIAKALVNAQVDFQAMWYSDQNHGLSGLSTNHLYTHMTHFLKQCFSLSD
Description: A calibration curve was determined using the FAP3 concentration (C-terminal cleavage fragment) against RFU to calculate the enzyme kinetic data and is shown below.

[3] = biological target: rhDPPIV (Homo sapiens, UniProt P27487); assay: Probe cleavage by recombinant human DPP-IV (exopeptidase activity); conditions: probe 5 µM, rhDPPIV 0.1 µg/ml, TRIS buffer pH 7.5, read 480/530 nm, n=3 run in triplicate
Description: Recombinant human enzymes [rhFAP (R&D Systems), rhPREP (R&D Systems) and rhDPPIV (Biolegend)] were stored in stocks at -70°C and diluted as required to be used at final concentration of 0.1 µg/ml. Enzymes were aliquoted upon receipt from the supplier and new stocks made from a fresh aliquot as required.
Assays were undertaken in triplicate in blackened 384 well plates on ice prior to spectral reads. […] All wells contained a final volume of 20 µl to include buffers, inhibitors (if used), substrates and recombinant human enzymes (at a concentration of 0.1 µg/ml unless otherwise stated). […] Plates were sealed with an optical plate sealer (Biolegend) and were read in a preheated spectrophotometer (Synergy Biotek) in monochromator-based mode at 380/460 nm for control substrates and 480/530 nm for synthesised FAP probes.

[4] = test system: NSCLC patient tissue samples; assay: Fluorescence intensity and lifetime imaging (FLIM) of ex vivo NSCLC tissue; parameters: species or system human; conditions: FAP3 5 µM, ex vivo NSCLC samples N=5, imaged at 10-minute intervals to 40 minutes, 488 nm excitation
Description: For imaging solutions, varying concentrations of rhFAP were prepared in blackened eppendorfs and FAP3 to a final concentration of 5µM added and imaged as below. For biological specimens, NSCLC patient tissue samples from surgical resection were used fresh or snap frozen and stored at -80°C until required. Small fragments (approx. 4mm^3) incubated at 37°C in a 96 well plate in phenyl-red free DMEM (Gibco) containing 10% FCS, 1% Penicillin-streptomycin and 1% L-Glutamine. For the tissue fragments to be used as inhibitor controls, we added Talabostat at a dilution of 1:1000. Samples were then imaged using a clinically approved fluorescence lifetime imaging system used in conjunction with an imaging fibre ([30]) providing a 400 x 400 µm field of view. The imaging system incorporates a pulsed supercontinuum laser source, in this case tuned for excitation at 488 nm, with an achromatic confocal laser scanning system and a time-resolved spectrometer. This spectrometer contains a 512 channel single photon avalanche diode (SPAD) sensor ([31]) allowing for the rapid collection of time resolved spectral fluorescence lifetime data. Fluorescence intensity and lifetime images were collected using an image resolution of 160 x 160 pixels over a 498 – 570 nm spectral range with an exposure time of 13 µs per pixel. This led to an imaging rate of ~3 frames per second.
For each condition, the tumour samples were imaged using a fibre placed at the surface of the tissue (baseline), and then again at 10-minute intervals following the additions of equimolar concentrations of probe +/- Inhibitor. For imaging solutions, the fibre was held within the solution and imaged every 5 minutes. Each condition and time-point data for both fluorescence intensity and lifetime were collected. Imaging sequences had non-relevant frames removed, and the entire field of view was analysed. Analysis was undertaken using a bespoke software suite utilising the rapid lifetime determination (RLD) method ([32]). […]

[5] = Probe stability in activated neutrophil lysate
Description: Assays were undertaken in triplicate in blackened 384 well plates on ice prior to spectral reads.
Neutrophils were isolated from peripheral blood of healthy volunteers by discontinuous percoll gradients, as previously described ([29]). Cells were resuspended in PBS (at 10 million cells/ml) and stimulated with 1 µM calcium ionophore, then lysed with 1% Triton-X-100. Lysate was used at 1:1 dilution for experiments, replacing recombinant enzymes in the assay as described above, with PBS as the buffer.
MALDI spectra were acquired on a Bruker Ultraflextreme MALDI-TOF MS. Neutrophil lysate experiment samples were prepared by plating 1 µl of the sample with 1 µl of the matrix solution sinapic acid (10 mg/mL) in H2O/CH3CN/TFA (70/30/0.1).

[6] = biological target: T2, MMP 2 (Homo sapiens, UniProt P08253); assay: Probe assessment against recombinant MMP panel; format: biochemical; conditions: recombinant enzyme, n=2 run in triplicate
T2 sequence (P08253 110-660): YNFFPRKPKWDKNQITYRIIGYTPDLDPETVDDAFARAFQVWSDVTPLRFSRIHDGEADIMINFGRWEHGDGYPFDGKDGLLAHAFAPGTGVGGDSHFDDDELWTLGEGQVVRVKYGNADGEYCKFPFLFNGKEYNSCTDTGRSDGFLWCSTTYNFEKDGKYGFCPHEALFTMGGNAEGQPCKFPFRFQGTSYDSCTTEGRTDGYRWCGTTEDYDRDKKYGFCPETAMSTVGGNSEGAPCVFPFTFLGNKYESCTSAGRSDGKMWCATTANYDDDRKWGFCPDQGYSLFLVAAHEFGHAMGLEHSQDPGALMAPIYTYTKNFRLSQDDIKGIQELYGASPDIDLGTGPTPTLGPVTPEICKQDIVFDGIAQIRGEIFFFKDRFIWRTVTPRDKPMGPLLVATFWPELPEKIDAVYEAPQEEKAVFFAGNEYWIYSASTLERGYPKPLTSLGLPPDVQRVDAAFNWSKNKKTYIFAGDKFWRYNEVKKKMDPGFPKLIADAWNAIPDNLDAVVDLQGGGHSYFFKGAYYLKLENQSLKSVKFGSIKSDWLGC

[7] = biological target: MMP 13 (Homo sapiens, UniProt P45452); assay: Probe assessment against recombinant MMP panel; format: biochemical; conditions: recombinant enzyme, n=2 run in triplicate

Chain of MMP 9 (P14780 94-707): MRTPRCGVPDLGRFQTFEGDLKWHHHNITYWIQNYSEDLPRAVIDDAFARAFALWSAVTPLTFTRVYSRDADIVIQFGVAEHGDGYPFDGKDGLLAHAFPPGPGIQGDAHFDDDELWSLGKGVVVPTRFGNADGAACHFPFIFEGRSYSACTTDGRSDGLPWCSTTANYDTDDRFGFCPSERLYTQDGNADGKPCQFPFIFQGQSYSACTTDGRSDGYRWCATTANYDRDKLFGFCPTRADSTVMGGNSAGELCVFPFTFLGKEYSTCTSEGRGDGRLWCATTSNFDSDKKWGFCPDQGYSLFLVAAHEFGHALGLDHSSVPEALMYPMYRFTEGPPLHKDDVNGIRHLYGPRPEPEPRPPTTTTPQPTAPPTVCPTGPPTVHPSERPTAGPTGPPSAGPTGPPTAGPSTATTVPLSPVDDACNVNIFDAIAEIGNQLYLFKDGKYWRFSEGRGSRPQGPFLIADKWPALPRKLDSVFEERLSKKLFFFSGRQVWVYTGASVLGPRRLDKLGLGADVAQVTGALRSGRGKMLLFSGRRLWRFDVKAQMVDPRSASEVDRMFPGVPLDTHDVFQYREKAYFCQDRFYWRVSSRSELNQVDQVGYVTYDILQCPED
Chain of rhDPPIV (P27487 29-766 limits assumed): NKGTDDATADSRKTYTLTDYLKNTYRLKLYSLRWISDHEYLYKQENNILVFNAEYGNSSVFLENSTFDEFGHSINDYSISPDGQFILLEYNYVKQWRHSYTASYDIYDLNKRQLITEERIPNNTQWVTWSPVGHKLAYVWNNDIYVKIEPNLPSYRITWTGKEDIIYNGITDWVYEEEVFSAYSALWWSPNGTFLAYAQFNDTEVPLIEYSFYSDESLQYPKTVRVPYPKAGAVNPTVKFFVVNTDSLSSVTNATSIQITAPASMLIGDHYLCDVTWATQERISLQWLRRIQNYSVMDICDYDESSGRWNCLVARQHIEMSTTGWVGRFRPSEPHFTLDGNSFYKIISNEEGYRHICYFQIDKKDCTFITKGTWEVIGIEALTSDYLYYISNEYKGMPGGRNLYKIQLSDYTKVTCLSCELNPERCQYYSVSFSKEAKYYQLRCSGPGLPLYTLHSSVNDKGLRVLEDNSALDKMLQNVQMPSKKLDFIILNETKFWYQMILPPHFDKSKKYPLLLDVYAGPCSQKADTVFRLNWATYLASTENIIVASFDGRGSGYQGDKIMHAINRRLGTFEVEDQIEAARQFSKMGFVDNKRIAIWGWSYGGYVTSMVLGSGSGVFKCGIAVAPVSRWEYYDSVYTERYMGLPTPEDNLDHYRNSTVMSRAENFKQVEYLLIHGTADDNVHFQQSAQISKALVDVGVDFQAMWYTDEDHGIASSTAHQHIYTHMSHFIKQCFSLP

CC(C)[C@H](NC(=O)[C@@H](N)CCCCNC(=O)c1ccccc1/N=N/c1ccc(N(C)C)cc1)C(=O)N[C@H](CO)C(=O)N1CCC[C@H]1C(=O)N[C@@H](CC(N)=O)C(=O)N[C@@H](CCC(N)=O)C(=O)NCC(=O)N[C@@H](CCCCNC(=O)c1ccc2c(c1)C(=O)OC21c2ccc(O)cc2Oc2cc(O)ccc21)C(=O)NCCOCCOCC(=O)N[C@H](CCCCN)C(=O)NCCOCCOCC(=O)N[C@H](CCCCN)C(=O)NCCOCCOCC(=O)N[C@H](CCCCN)C(N)=O [FAP3] (H-K(MethylRed)V[dS]PNQGK(5FAM)[AEEA][dK][AEEA][dK][AEEA][dK]-NH2)
Activity with MMP 9 [1]: no activity
Vmax [2]: 109.5 RFU/min
Cleavage by DPP-IV (exopeptidase activity, fluorescence signal) [3]: no cleavage
Change in fluorescence intensity in NSCLC tissue ([4]; 37°C): increase in fluorescence intensity
Change in fluorescence lifetime in NSCLC tissue ([4]; RLD method): change to a longer lifetime signature
Stability in activated neutrophil lysate (MALDI-TOF) ([5]; activated human neutrophil lysate, MALDI-TOF read-out, sinapic acid matrix): remained intact
Stability in activated neutrophil lysate (fluorescence) ([5]; human neutrophils 10 million cells/ml, 1 µM calcium ionophore, lysed with 1% Triton-X-100, lysate at 1:1 dilution, PBS, fluorescence 480/530 nm, n=2 run in triplicate): stable
Activity with MMP 2 [6]: no activity
Activity with MMP 13 [7]: no activity

Source: article PMC8961646, “Fibroblast Activation Protein Specific Optical Imaging in Non-Small Cell Lung Cancer” (Frontiers in Oncology, 2022)
